From patent EP4014973B1, “INHALED LIQUID FOR THE TREATMENT OF RESPIRATORY INFECTIONS IN HUMANS CAUSED BY PATHOGENS RESISTANT TO ANTIBIOTICS” (Conick Biotech LLC, priority 2020, dated 2022)
Where two headings read alike, the source gives them in different places.

Columns and labels:
Pasteurella = assay: In vitro comparative zone diameter test on Müller-Hinton-Agar; assay type: cell-based; details: amount used: novel compound 0.05 mL, Cephalosporin 0.1 mL, Ampicillin 0.2 mL
Cryptococcus = assay: as above; assay type: cell-based; details: amount used: novel compound 0.05 mL, Cephalosporin 0.1 mL, Ampicillin 0.2 mL
Campylobacter = assay: as above; assay type: cell-based; details: amount used: novel compound 0.05 mL, Cephalosporin 0.1 mL, Ampicillin 0.2 mL
Microsporidia = assay: as above; assay type: cell-based; details: amount used: novel compound 0.05 mL, Cephalosporin 0.1 mL, Ampicillin 0.2 mL
Histoplasma capsulatum = assay type: cell-based; details: Müller-Hinton-Agar, amount used: novel compound 0.05 mL, Cephalosporin 0.1 mL, Ampicillin 0.2 mL
Micrococcus = assay: In vitro comparative zone diameter test on Müller-Hinton-Agar; assay type: cell-based; details: amount used: novel compound 0.05 mL, Cephalosporin 0.1 mL, Ampicillin 0.2 mL
Candida = assay: as above; assay type: cell-based; details: amount used: novel compound 0.05 mL, Cephalosporin 0.1 mL, Ampicillin 0.2 mL
mice [1] = details: p.o., 2,000 µL / kg
rats [2] = details: p.o., 2,250 µL / kg
mice [3] = tested on: mice
rats [4] = tested on: rats
humans = assay: Clinical pilot study of side effects after inhalation; details: 80 humans
[5] = inhalatory application, 2,250 µL / kg
[6] = inhalatory application, after 14 days
[7] = inhalatory application, 2,500 µL / kg
[8] = inhalation, 10ml 2% / 30 kg every 8 hours for seven (7) days

## CC1(C)S[C@@H]2[C@H](NC(=O)[C@H](N)c3ccccc3)C(=O)N2[C@H]1C(=O)O [Ampicilin, Ampicillin]
Pasteurella
  R (evaluation of the results by zone diameter): MS (5 - 9 mm: moderately sensitive: MS)
  zone diameter: 5 mm
Cryptococcus
  R (evaluation of the results by zone diameter): R (0mm - 4mm: resistant: R)
  zone diameter: 0 mm
Campylobacter
  R (evaluation of the results by zone diameter): MS (5 - 9 mm: moderately sensitive: MS)
  zone diameter: 7 mm
Microsporidia
  R (evaluation of the results by zone diameter): R (0mm - 4mm: resistant: R)
  zone diameter: 3 mm
Histoplasma capsulatum
  R (evaluation of the results by zone diameter): R (0mm - 4mm: resistant: R)
  zone diameter: 2 mm
Micrococcus
  R (evaluation of the results by zone diameter): R (0mm - 4mm: resistant: R)
  zone diameter: 0 mm
Candida
  R (evaluation of the results by zone diameter): R (0mm - 4mm: resistant: R)
  zone diameter: 4 mm

## C=CCc1ccc(O)c(OC)c1.CCN(CC)CC(=O)Nc1c(C)cccc1C [Novel Compound, N-[N'-(carboxymethylenyl-2,6-dimethyl-aniline)-N,N-diethylammonium]-[2'-methoxy-4'-(2'-propenyl)]-phenolate.]
Pasteurella
  R (evaluation of the results by zone diameter): ES (21 mm and more: extremely sensitive: ES)
  zone diameter: 36 mm
Cryptococcus
  R (evaluation of the results by zone diameter): ES (21 mm and more: extremely sensitive: ES)
  zone diameter: 31 mm
Campylobacter
  R (evaluation of the results by zone diameter): ES (21 mm and more: extremely sensitive: ES)
  zone diameter: 32 mm
Microsporidia
  R (evaluation of the results by zone diameter): ES (21 mm and more: extremely sensitive: ES)
  zone diameter: 30 mm
Micrococcus
  R (evaluation of the results by zone diameter): ES (21 mm and more: extremely sensitive: ES)
  zone diameter: 38 mm
Candida
  R (evaluation of the results by zone diameter): ES (21 mm and more: extremely sensitive: ES)
  zone diameter: 33 mm
Mice [1]
  Breading and cardiac functions: regular
  time after which discomfort symptoms disappeared: 1 to 3 min
Mice [1]; out of hundred (100)
  mice that changed their behavior and demonstrated light discomfort (running, anxiety): 23
Rats [2]
  Breading and cardiac functions: regular
  time after which discomfort symptoms disappeared: 1 to 3 min
Rats [2]; out of hundred (100)
  rats that changed their behavior and demonstrated light discomfort (running, anxiety): 37
Mice [3]; [5]
  Breading and cardiac functions: regular
  time after which discomfort symptoms disappeared: 3 to 5 min
Mice [3]; inhalatory application, 2,250 µL / kg, out of hundred (100)
  mice that changed their behavior and demonstrated discomfort (running, anxiety): 21
Mice [3]; [6]
  reexamination of the animals: no new irregularities were found
Rats [4]; [7]
  Breading and cardiac functions: regular
  time after which discomfort symptoms disappeared: 5 to 6 min
Rats [4]; inhalatory application, 2,500 µL / kg, out of hundred (100)
  rats that changed their behavior and demonstrated discomfort (running, anxiety): 29
Rats [4]; [6]
  reexamination of the animals: no new irregularities were found
humans; blood samples before the test, on the 4th and 8th day
  C Reactive Protein (CRP) measurements: no inflammation was developed
humans; during the inhalation, 10ml 2% / 30 kg every 8 hours for seven (7) days
  pulse frequency and blood pressure: not significantly altered
humans; during the intake, 10ml 2% / 30 kg every 8 hours for seven (7) days
  Electrocardiography measurements: regular without any pathological and irregular oscillations
humans; in the very beginning of the test
  coughing: Sporadic coughing was recorded in some participants
humans; [8]
  bronchospasms: No bronchospasms were recorded
  dyspnea: No dyspnea was recorded
  respiratory function: not disturbed
